Results reported in US20140158116A1, “INHIBITING TRPA1 FOR THE TREATMENT OF ASTHMA” (Cubist Pharmaceuticals, Inc., priority 2012, published 2014).
Entries after “also recorded” stand apart in the source; their conditions may differ. Where two headings read alike, the source gives them in different places.

Key:
[1] = Oral bioavailability pharmacokinetic study; type: in vivo; settings: rat, plasma, PO versus IV
Description: The potency and pharmacokinetic (PK) properties of (a) the compound of Formula (Ia); and (b) comparator compound of Formula (III) were evaluated. Bioavailability was measured as well. A pharmacokinetic study was performed to obtain a plasma drug concentration vs time plot for the drug after both intravenous (IV) and oral (PO) administration. The absolute bioavailability is the dose-corrected area under curve (AUC) non-intravenous divided by AUC intravenous. The formula for calculating F for a drug administered by the oral route (PO) is given below.
The bioavailability was calculated using the equation shown below:
% F=AUC PO×Dose IV/AUC IV×Dose PO

[2] = Human plasma protein binding by equilibrium dialysis; type: in vitro ADME; settings: percentage bound
Description: The amount of compound in buffer (free fraction) and the amount of compound associated with the plasma fraction is determined by equilibrium dialysis; the amount of compound bound is expressed as a percentage. (Banker et al., Journal of Pharmaceutical Sciences (2003) 92(5): 967-74.)

[3] = molecular target: T1, hTRPV3 (Homo sapiens, UniProt Q8NET8); assay: Patch clamp selectivity, hTRPV3; type: cell-based
T1 sequence (Q8NET8 1-790): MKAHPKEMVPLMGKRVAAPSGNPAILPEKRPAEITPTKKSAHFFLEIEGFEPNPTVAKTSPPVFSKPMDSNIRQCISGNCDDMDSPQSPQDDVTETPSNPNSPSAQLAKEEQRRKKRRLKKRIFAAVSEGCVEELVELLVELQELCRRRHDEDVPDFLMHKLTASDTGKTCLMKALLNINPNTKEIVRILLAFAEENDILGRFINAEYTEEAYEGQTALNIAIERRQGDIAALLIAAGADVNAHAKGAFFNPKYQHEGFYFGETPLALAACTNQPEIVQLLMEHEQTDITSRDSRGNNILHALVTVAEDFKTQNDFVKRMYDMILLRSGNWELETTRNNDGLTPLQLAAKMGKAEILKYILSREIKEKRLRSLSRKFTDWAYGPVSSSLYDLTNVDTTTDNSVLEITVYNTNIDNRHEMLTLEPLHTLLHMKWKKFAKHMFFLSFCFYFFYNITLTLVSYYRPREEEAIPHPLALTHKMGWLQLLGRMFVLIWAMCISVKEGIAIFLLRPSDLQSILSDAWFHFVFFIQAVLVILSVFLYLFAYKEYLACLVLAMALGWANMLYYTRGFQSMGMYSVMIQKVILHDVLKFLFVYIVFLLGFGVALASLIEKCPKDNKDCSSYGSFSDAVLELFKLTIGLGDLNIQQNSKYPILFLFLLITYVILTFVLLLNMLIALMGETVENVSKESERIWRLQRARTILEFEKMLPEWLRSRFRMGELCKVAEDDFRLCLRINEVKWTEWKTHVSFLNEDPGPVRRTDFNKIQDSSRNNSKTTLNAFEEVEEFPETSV
Description: (§1) Data for TRPA1 inhibition and the selectivity of TRPA1 inhibition was obtained by this method for the compound of Formula (Ia) and included in Table 1 and Table 2. All currents were recorded in whole-cell configuration using EPC-9 and EPC-10 amplifiers and Patchmaster software (HEKA). […] The standard pipette solution consisted of 140 mM CsAsp, 10 mM EGTA, 10 mM HEPES, 2.27 mM MgCl2, 1.91 mM CaCl2, 4 mM MgATP, and 0.1-0.3 mM Na2GTP, with pH adjusted to 7.2 with CsOH. In addition, a solution containing 145 mM CsCl, 10 mM HEPES, 10 mM EGTA and 1 mM MgCl2 (pH 7.2 adjusted with CsOH) can be used. The standard bath solution contained 150 mM NaCl, 10 mM HEPES, 10 mM glucose, 4.5 mM KCl, 1 mM EGTA, 3 mM MgCl2, with pH adjusted to 7.4 with NaOH. In some instances, 2 mM CaCl2 was added in place of EGTA and the concentration of MgCl2 was reduced to 1 mM.
(§2) Data were collected either by continuous recordings at −60 mV or by applying voltage ramps from a holding potential of 0 mV every 4 s. […] Inward and outward currents were analyzed from the ramps at −80 and 80 mV, respectively. […]
(§3) Solutions were switched using a gravity-fed continuous focal perfusion system. […] Temperatures were confirmed using a thermistor (Warner Instruments, TA-29), with temperatures at the recorded cell estimated to be within +/−2° C. of those reported. […]

[4] = molecular target: hTRPV1 (Homo sapiens, UniProt Q8NER1); assay: Patch clamp selectivity, hTRPV1; type: cell-based
Description: as §1, §2, §3

[5] = 7-day repeat dose i.p. screening toxicity study in rats; type: in vivo, rat; settings: female rats, 50 mg/kg/day i.p. for 7 consecutive days
Description: The compound of Formula (Ia) was evaluated in a 7-day repeat dose screening toxicity study in female rats. In order to maximize systemic exposure, rats were administered compound of Formula (Ia) i.p. at 50 mg/kg/day for 7 consecutive days, to obtain the results shown in FIG. 6. Clinical chemistry parameters were evaluated on Days 3 and 8. Histopathology was performed on select organs including the liver, kidney, spleen, and lung.

[6] = molecular target: hTRPV4 (Homo sapiens, UniProt Q9HBA0); assay: Patch clamp selectivity, hTRPV4 block; type: cell-based
Description: as §1, §2, §3

hTRPV1, sequence (Q8NER1 whole entry): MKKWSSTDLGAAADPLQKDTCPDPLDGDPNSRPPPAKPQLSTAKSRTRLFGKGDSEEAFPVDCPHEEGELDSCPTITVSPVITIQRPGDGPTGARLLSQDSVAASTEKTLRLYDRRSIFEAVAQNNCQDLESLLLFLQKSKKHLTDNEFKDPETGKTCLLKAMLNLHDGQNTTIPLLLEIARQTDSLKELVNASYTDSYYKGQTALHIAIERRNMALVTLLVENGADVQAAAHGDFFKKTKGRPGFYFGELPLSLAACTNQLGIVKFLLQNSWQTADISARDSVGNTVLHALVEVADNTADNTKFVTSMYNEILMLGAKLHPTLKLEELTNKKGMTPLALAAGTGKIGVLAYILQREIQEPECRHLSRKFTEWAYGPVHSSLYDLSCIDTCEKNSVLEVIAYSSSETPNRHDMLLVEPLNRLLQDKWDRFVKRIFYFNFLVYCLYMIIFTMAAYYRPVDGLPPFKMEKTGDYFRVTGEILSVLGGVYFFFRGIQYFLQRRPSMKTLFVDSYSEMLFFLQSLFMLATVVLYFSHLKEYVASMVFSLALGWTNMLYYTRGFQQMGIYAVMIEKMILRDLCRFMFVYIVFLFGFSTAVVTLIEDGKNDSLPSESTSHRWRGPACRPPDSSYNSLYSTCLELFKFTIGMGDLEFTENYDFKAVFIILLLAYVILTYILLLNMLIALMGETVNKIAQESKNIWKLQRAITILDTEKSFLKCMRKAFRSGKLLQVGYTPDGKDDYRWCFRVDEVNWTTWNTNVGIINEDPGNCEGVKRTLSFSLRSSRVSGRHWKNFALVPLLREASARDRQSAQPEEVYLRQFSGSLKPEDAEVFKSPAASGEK
hTRPV4, sequence (Q9HBA0 whole entry): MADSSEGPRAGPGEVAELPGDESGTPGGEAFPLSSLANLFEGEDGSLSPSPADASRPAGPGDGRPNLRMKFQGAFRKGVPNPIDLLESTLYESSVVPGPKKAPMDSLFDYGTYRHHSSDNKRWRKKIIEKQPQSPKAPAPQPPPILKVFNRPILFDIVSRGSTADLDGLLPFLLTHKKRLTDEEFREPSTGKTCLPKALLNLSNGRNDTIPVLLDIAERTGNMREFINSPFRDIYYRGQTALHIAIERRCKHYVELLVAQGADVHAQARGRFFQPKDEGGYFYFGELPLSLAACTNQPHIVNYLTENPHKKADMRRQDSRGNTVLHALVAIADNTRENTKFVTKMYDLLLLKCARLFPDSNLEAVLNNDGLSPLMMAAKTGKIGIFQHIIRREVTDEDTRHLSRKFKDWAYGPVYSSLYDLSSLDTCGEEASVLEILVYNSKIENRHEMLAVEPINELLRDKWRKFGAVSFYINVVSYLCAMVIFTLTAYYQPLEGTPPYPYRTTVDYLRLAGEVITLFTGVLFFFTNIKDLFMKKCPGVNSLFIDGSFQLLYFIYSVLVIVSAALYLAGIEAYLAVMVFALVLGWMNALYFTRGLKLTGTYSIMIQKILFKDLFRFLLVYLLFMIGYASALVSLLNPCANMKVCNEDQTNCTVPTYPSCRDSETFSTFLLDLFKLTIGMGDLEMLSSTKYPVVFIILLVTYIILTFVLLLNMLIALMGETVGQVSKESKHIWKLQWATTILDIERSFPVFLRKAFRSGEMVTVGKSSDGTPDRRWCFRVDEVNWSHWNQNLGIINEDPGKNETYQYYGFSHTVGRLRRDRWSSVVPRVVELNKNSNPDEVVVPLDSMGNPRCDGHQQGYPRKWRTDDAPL

bioavailability ([1]; oral, fed rats, read-out: Bioavailability (Rat) Fed): > 50%
bioavailability ([1]; po, fasted rats, read-out: Bioavailability (Rat) Fasted): 25 to 50%
bioavailability ([1]; po, fed rats, read-out: Bioavailability (Rat) Fed): > 50%
fraction unbound [2]: > 0.01
Fold Selectivity Compared to TRPA1 [3]: >300 fold
IC50 ([3]; 30 micromolar 2-APB, Inward (−80 mV)): > 32 µM
Fold Selectivity Compared to TRPA1 [4]: >100 fold
IC50 ([4]; 500 nanomolar Capsaicin, Inward (−80 mV)): > 10 µM
Fold Selectivity Compared to TRPA1 [6]: ~170 fold
IC50 ([6]; 2 micromolar 4α-PDD, Inward (−80 mV)): 16 µM
SMILES: C[C@H]1CCCN1c1ncc(-c2cccc(NC(=O)Cn3cnc4c3c(=O)n(C)c(=O)n4C)n2)cn1 [Formula (Ia)]
clinical signs, body weight, clinical chemistry parameters [5]: no adverse clinical signs, changes in body weight, or changes in clinical chemistry parameters were noted
histopathology of liver, kidney, spleen, lung ([5]; 50 mg/kg/day): No histopathological findings in the liver, kidney, spleen, or lung were observed; also recorded: no adverse effects related to the compound of Formula (Ia) were identified
